Measurements as given in patent US20160326142A1, “PYRAZOLE CARBOXAMIDE COMPOUNDS, COMPOSITIONS AND METHODS OF USE” (Genentech, Inc., priority 2012, published 2016).

Target: T1, ITK (Homo sapiens, UniProt Q08881)
T1 construct: purchased Invitrogen PV3875
T1 sequence (Q08881 1-620): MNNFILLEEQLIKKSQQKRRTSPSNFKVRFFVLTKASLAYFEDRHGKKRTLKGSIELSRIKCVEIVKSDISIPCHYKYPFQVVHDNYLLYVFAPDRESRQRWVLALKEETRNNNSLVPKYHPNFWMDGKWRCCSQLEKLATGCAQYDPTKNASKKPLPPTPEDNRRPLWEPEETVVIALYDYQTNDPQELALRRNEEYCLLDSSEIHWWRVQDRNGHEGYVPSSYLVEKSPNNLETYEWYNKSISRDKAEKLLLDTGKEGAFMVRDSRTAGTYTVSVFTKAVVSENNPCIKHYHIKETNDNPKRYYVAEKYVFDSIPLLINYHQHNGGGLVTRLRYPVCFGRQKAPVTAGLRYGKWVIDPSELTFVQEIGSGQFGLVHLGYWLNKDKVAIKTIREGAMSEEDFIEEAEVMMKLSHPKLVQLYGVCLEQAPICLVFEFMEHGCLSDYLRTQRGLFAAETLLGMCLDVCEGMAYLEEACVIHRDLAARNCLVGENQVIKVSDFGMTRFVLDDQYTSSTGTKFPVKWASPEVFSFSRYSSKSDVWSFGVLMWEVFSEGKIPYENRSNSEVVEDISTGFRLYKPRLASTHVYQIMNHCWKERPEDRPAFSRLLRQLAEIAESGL
Experiment: ITK enzyme assay (Caliper or LCMS peptide phosphorylation)
Type: biochemical
Settings: purified ITK (Invitrogen PV3875), 20 μM ATP, Ki by Morrison's quadratic equation
Method: The ability of purified ITK (Invitrogen PV3875) to catalyze peptide phosphorylation is monitored using a Caliper LabChip 3000 microfluidic unit (Caliper assay) or by liquid chromatography-mass spectrometry (LCMS) using a Waters Acquity system (LCMS assay). […] Reactions are quenched by the addition of 2,2′,2″,2′″-(ethane-1,2-diyldinitrilo)tetraacetic acid (50 mM final). Non-phosphorylated substrate and phosphorylated product peptides are separated and quantified using a Caliper LabChip 3000 instrument. […] Reactions are quenched by the addition of trichloroacetic acid (5% v/v final). Non-phosphorylated substrate and phosphorylated product peptides are separated by ultra performance LC and detected by a coupled triple quadrupole MS device applying multiple reaction monitoring (MRM) for quantification. The area of the MRM-extracted mass signal is used to assess the inhibition by test compounds. Equilibrium dissociation constant (Ki) values for ITK inhibitors are calculated from plots of activity vs. inhibitor concentration using Morrison's quadratic equation that accounts for the potential of tight binding, and by also applying the conversion factor that accounts for competitive inhibition and the concentration of ATP used in the assay relative to its apparent Michaelis constant (Km,app).

SMILES	Ki [nM]
CC1(C)CCc2c(C(=O)Nc3cnn(C(CCN)c4ccccc4)c3)n[nH]c2C1 (single isomer, unassigned) [Example 42a, N-(1-(3-amino-1-phenylpropyl)-1H-pyrazol-4-yl)-6,6-dimethyl-4,5,6,7-tetrahydro-1H-indazole-3-carboxamide]	10
CC1(C)CCc2c(C(=O)Nc3cnn(C(CCN)c4ccccc4)c3)n[nH]c2C1 (single isomer, unassigned) [Example 42b, N-(1-(3-amino-1-phenylpropyl)-1H-pyrazol-4-yl)-6,6-dimethyl-4,5,6,7-tetrahydro-1H-indazole-3-carboxamide]	0.9
CN1CCC(C(c2ccccc2)n2cc(NC(=O)c3n[nH]c4c3CCC(C)(C)C4)cn2)CC1 (single isomer, unassigned) [Example 43a, 6,6-dimethyl-N-(1-((1-methylpiperidin-4-yl)(phenyl)methyl)-1H-pyrazol-4-yl)-4,5,6,7-tetrahydro-1H-indazole-3-carboxamide]	0.2
CN1CCC(C(c2ccccc2)n2cc(NC(=O)c3n[nH]c4c3CCC(C)(C)C4)cn2)CC1 (single isomer, unassigned) [Example 43b, 6,6-dimethyl-N-(1-((1-methylpiperidin-4-yl)(phenyl)methyl)-1H-pyrazol-4-yl)-4,5,6,7-tetrahydro-1H-indazole-3-carboxamide]	6.2
CC1(C)CCc2c(C(=O)Nc3cnn(C(c4ccccc4)C4(F)CCNCC4)c3)n[nH]c2C1 (single isomer, unassigned) [Example 44a, N-(1-((4-fluoropiperidin-4-yl)(phenyl)methyl)-1H-pyrazol-4-yl)-6,6-dimethyl-4,5,6,7-tetrahydro-1H-indazole-3-carboxamide]	6
CC1(C)CCc2c(C(=O)Nc3cnn(C(c4ccccc4)C4(F)CCNCC4)c3)n[nH]c2C1 (single isomer, unassigned) [Example 44b, N-(1-((4-fluoropiperidin-4-yl)(phenyl)methyl)-1H-pyrazol-4-yl)-6,6-dimethyl-4,5,6,7-tetrahydro-1H-indazole-3-carboxamide]	0.2
CC1(C)CCc2c(C(=O)Nc3cnn(C(c4ccccc4)C4CN(S(C)(=O)=O)C4)c3)n[nH]c2C1 (single isomer, unassigned) [Example 45a, 6,6-dimethyl-N-(1-((1-(methylsulfonyl)azetidin-3-yl)(phenyl)methyl)-1H-pyrazol-4-yl)-4,5,6,7-tetrahydro-1H-indazole-3-carboxamide]	370
CC1(C)CCc2c(C(=O)Nc3cnn(C(c4ccccc4)C4CN(S(C)(=O)=O)C4)c3)n[nH]c2C1 (single isomer, unassigned) [Example 45b, 6,6-dimethyl-N-(1-((1-(methylsulfonyl)azetidin-3-yl)(phenyl)methyl)-1H-pyrazol-4-yl)-4,5,6,7-tetrahydro-1H-indazole-3-carboxamide]	48
Cc1cccc(C(C2CNC2)n2cc(NC(=O)c3n[nH]c4c3CCC(C)(C)C4)cn2)c1 (single isomer, unassigned) [Example 47a, N-(1-(azetidin-3-yl(m-tolyl)methyl)-1H-pyrazol-4-yl)-6,6-dimethyl-4,5,6,7-tetrahydro-1H-indazole-3-carboxamide]	2
Cc1cccc(C(C2CNC2)n2cc(NC(=O)c3n[nH]c4c3CCC(C)(C)C4)cn2)c1 (single isomer, unassigned) [Example 47b, N-(1-(azetidin-3-yl(m-tolyl)methyl)-1H-pyrazol-4-yl)-6,6-dimethyl-4,5,6,7-tetrahydro-1H-indazole-3-carboxamide]	9

More lines, now with the values ahead:

Ki [nM]	SMILES
10	CC1(C)CCc2c(C(=O)Nc3cnn(C(c4ccccc4)C4(F)CNC4)c3)n[nH]c2C1 (single isomer, unassigned) [Example 49a, N-(1-((3-fluoroazetidin-3-yl)(phenyl)methyl)-1H-pyrazol-4-yl)-6,6-dimethyl-4,5,6,7-tetrahydro-1H-indazole-3-carboxamide]
2	CC1(C)CCc2c(C(=O)Nc3cnn(C(c4ccccc4)C4(F)CNC4)c3)n[nH]c2C1 (single isomer, unassigned) [Example 49b, N-(1-((3-fluoroazetidin-3-yl)(phenyl)methyl)-1H-pyrazol-4-yl)-6,6-dimethyl-4,5,6,7-tetrahydro-1H-indazole-3-carboxamide]
260	O=C(Nc1cnn(Cc2ccccc2)c1)c1n[nH]c2c1CCC1(CCCO1)C2 (single isomer, unassigned) [Example 50a, N-(1-benzyl-1H-pyrazol-4-yl)-1′,4,4′,5,5′,7′-hexahydro-3H-spiro[furan-2,6′-indazole]-3′-carboxamide]
620	O=C(Nc1cnn(Cc2ccccc2)c1)c1n[nH]c2c1CCC1(CCCO1)C2 (single isomer, unassigned) [Example 50b, N-(1-benzyl-1H-pyrazol-4-yl)-1′,4,4′,5,5′,7′-hexahydro-3H-spiro[furan-2,6′-indazole]-3′-carboxamide]
160	CC1(O)CCc2c(C(=O)Nc3cnn(Cc4ccccc4)c3)n[nH]c2C1 (single isomer, unassigned) [Example 51a, N-(1-benzyl-1H-pyrazol-4-yl)-6-hydroxy-6-methyl-4,5,6,7-tetrahydro-1H-indazole-3-carboxamide]
0.2	CN(C)CCC(c1ccccc1)n1cc(NC(=O)c2n[nH]c3c2CC2CC2(C)C3)cn1 (single isomer, unassigned) [Example 52a, N-(1-(3-(dimethylamino)-1-phenylpropyl)-1H-pyrazol-4-yl)-5a-methyl-1,4,4a,5,5a,6-hexahydrocyclopropa[f]indazole-3-carboxamide]
17	CN(C)CCC(c1ccccc1)n1cc(NC(=O)c2n[nH]c3c2CC2CC2(C)C3)cn1 (single isomer, unassigned) [Example 52b, N-(1-(3-(dimethylamino)-1-phenylpropyl)-1H-pyrazol-4-yl)-5a-methyl-1,4,4a,5,5a,6-hexahydrocyclopropa[f]indazole-3-carboxamide]
2	CN(C)CCC(c1ccccc1)n1cc(NC(=O)c2n[nH]c3c2CC2CC2(C)C3)cn1 (single isomer, unassigned) [Example 52c, N-(1-(3-(dimethylamino)-1-phenylpropyl)-1H-pyrazol-4-yl)-5a-methyl-1,4,4a,5,5a,6-hexahydrocyclopropa[f]indazole-3-carboxamide]
100	CN(C)CCC(c1ccccc1)n1cc(NC(=O)c2n[nH]c3c2CC2CC2(C)C3)cn1 (single isomer, unassigned) [Example 52d, N-(1-(3-(dimethylamino)-1-phenylpropyl)-1H-pyrazol-4-yl)-5a-methyl-1,4,4a,5,5a,6-hexahydrocyclopropa[f]indazole-3-carboxamide]
5	CC1(C)CCc2c(C(=O)Nc3cnn(C(CO)c4ccccc4)c3)n[nH]c2C1 (single isomer, unassigned) [Example 53a, N-(1-(2-hydroxy-1-phenylethyl)-1H-pyrazol-4-yl)-6,6-dimethyl-4,5,6,7-tetrahydro-1H-indazole-3-carboxamide]
29	CC1(C)CCc2c(C(=O)Nc3cnn(C(CO)c4ccccc4)c3)n[nH]c2C1 (single isomer, unassigned) [Example 53b, N-(1-(2-hydroxy-1-phenylethyl)-1H-pyrazol-4-yl)-6,6-dimethyl-4,5,6,7-tetrahydro-1H-indazole-3-carboxamide]
1	CCC(c1cccnc1)n1cc(NC(=O)c2n[nH]c3c2CCC(C)(C)C3)cn1 (single isomer, unassigned) [Example 54a, 6,6-dimethyl-N-(1-(1-(pyridin-3-yl)propyl)-1H-pyrazol-4-yl)-4,5,6,7-tetrahydro-1H-indazole-3-carboxamide]
6	CCC(c1cccnc1)n1cc(NC(=O)c2n[nH]c3c2CCC(C)(C)C3)cn1 (single isomer, unassigned) [Example 54b, 6,6-dimethyl-N-(1-(1-(pyridin-3-yl)propyl)-1H-pyrazol-4-yl)-4,5,6,7-tetrahydro-1H-indazole-3-carboxamide]
5	CC1(C)CCc2c(C(=O)Nc3cnn(C(c4ccccc4)C(C)(C)O)c3)n[nH]c2C1 (single isomer, unassigned) [Example 55a, N-(1-(2-hydroxy-2-methyl-1-phenylpropyl)-1H-pyrazol-4-yl)-6,6-dimethyl-4,5,6,7-tetrahydro-1H-indazole-3-carboxamide]
